These results are taken from patent publication US12109303B2, “Orally dissolving antimicrobial film compositions and methods of their use” (ISHA Therapeutics LLC, priority 2022, dated 2024).

Data set [1] is described as follows: Solubility in MiliQ water, quantified by HPLC. The data set is classed as physicochemical. The note with it: thermodynamic from solid, 0.5 mL MiliQ water, room temperature, 6 hours shaking, read-out: Solubility: average concentration of amphotericin B.
The test system of the next data set is Candida tropicalis. As to the kind of experiment: Resazurin microtiter assay (REMA) MIC. The data set is classed as cell-based. As for the experimental part:
(§1) This Example provides a description of antifungal efficacy testing wherein minimum inhibitor concentration (MIC) of the active pharmaceutical ingredient amphotericin B in the orally dissolvable films disclosed herein compared to that of unmodified amphotericin B. The test organisms utilized in this experiment were Candida tropicalis and Candida albicans.
(§2) A resazurin microtiter assay (REMA) assay was performed using orally dissolvable films prepared according to the process described in Example 3 and unmodified amphotericin B. Samples were run in triplicate as Sets 1-3 for each test material against each pathogen.
(§3) Images of the microtiter plates used to conduct this experiment are shown in FIG. 5, illustrating the results of MIC assay. […] Results of the orally dissolvable film (“ODF (A)”) and unmodified amphotericin B (“AmpB (B)”) against Candida tropicalis and Candida albicans are shown in the microtiter plates on the left and right, respectively. The first row of each microtiter plate (top) contains a positive control (“P.C.”). The second row of each microtiter plate contains a negative control (“N.C.”).

Data set [2] concerns Candida albicans. As to the kind of experiment: Resazurin microtiter assay (REMA) MIC. The data set is classed as cell-based. As for the experimental part:
as §1, §2, §3
For orientation: Alamar Blue is a resazurin reagent that responds to reducing activity.

For data set [3] the following is noted: limited solubility and permeability; cited from earlier work.
The test system of data set [4] is Candida albicans. Description: Growth inhibition assay with resazurin colorimetric readout (MIC48h). The data set is classed as cell-based. The settings on record: RPMI 1640, 30° C., 48±2 hours, unmodified drug in DMSO, film in aqueous media. The text has this:
Tis Example provides a description of antifungal efficacy testing wherein minimum inhibitor concentration (MIC) of the active pharmaceutical ingredient amphotericin B in the orally dissolvable films disclosed herein compared to that of unmodified amphotericin B. The test organism utilized in this experiment was Candida albicans.
Three to five colonies of a single Candida albicans strain were selected from stock YPD agar (agar comprising yeast extract, peptone, and dextrose; also referred to as YEPD agar) plates and suspended in Roswell Park Memorial Institute (RPMI) 1640 medium. The process was repeated to form a number of suspensions of Candida albicans. The Candida albicans suspensions were then each diluted to achieve an initial inoculum with an Abs600 of 0.010.
Test compositions of unmodified amphotericin B in DMSO and orally dissolvable films of amphotericin B in aqueous media were added, followed by serial dilution of the RPMI media.
A growth inhibition assay was performed in triplicate and results determined using a resazurin colorimetric assay. All plated compositions were incubated at 30° C. for 48±2 hours. […] After incubation, 20 μL of resazurin dye (0.02% w/v) was added to each well and observed for a change in dye color to determine cell viability.

Setting [5] is: read-out: Minimum Inhibitory Concentration, Avg.
The mark [6] stands for this setting: read-out: Minimum Inhibitory Concentration, Set 1.
Setting [7] is: read-out: Minimum Inhibitory Concentration, Set 2.
Setting [8] is: read-out: Minimum Inhibitory Concentration, Set 3.

Values after ≈ are worked out from the molar mass of the structure shown. Like-named read-outs stand apart in the source and are kept apart here.

Regarding `C[C@@H]1[C@H](O)[C@@H](C)/C=C/C=C/C=C/C=C/C=C/C=C/C=C/[C@H](O[C@@H]2O[C@H](C)[C@@H](O)[C@H](N)[C@@H]2O)C[C@@H]2O[C@](O)(C[C@@H](O)C[C@@H](O)[C@H](O)CC[C@@H](O)C[C@@H](O)CC(=O)O[C@H]1C)C[C@H](O)[C@H]2C(=O)O` [AmpB, (1R,3S,5R,6R,9R,11R,15S,16R,17R,18S,19E,21E, 23E, 25E, 27E,29E,31E,33R,35S,36R,37S)-33-[(2R,3S,4S,5S,6R)-4-amino-3,5-di hydroxy-6-methyloxan-2-yl] oxy-1,3,5,6,9,11,17,37-octahydroxy-15,16,18-trimethyl-13-oxo-14,39-dioxabicyclo[33.3.1]nonatriaconta-19,21,23, 25, 27,29,31-heptaene-36-carboxylic acid], the solubility at 6 h in data set [1] worked out at 630 µg/mL (≈ 682 µM). For the same compound, the MIC in the data set with Candida tropicalis (read-out: Average MIC), with Candida tropicalis (setting [5]), in the data set on Candida tropicalis (setting [6]), in the data set on Candida tropicalis (setting [7]), with Candida tropicalis (setting [8]) and in the data set with Candida albicans [2] (read-out: Average MIC) was 1.1 µg/mL (≈ 1.19 µM) each time. Further, the MIC stood at 1.1 µg/mL (≈ 1.19 µM) with Candida albicans [2] (setting [5]); 1.1 µg/mL (≈ 1.19 µM) in the data set on Candida albicans [2] (setting [6]); 1.1 µg/mL (≈ 1.19 µM) in the data set with Candida albicans [2] (setting [7]); 1.1 µg/mL (≈ 1.19 µM) with Candida albicans [2] (setting [8]); 1.25 µM (≈ 1.16 µg/mL) in the data set with Candida albicans [4]. For the same compound, in data set [3], the “Biopharmaceutics Classification System (BCS) class” value is “class IV”.
